Laboratory results: patent publication US20240132524A1, “SMALL MOLECULES FOR BORON NEUTRON CAPTURE THERAPY” (Aviko Radiopharmaceuticals, LLC, priority 2022, published 2024)
Values joined by “and” are separate entries in the source; they are usually repeats but may differ in a detail not shown here. Equal values may be shown once.

Experiments:
SAS (head & neck cancer) = experiment: Cell uptake assay in SAS cells; type: cell-based, human; conditions: 0.1 mM
Description: (§1) • 1.1.1 15 mL of cell culture medium was placed into a T225 flask. • 1.1.2 The flask was placed in a humidified 37° C., 5% CO2 incubator for 15 minutes to allow medium to equilibrate to the proper pH and temperature. • 1.1.3 The vial was removed from liquid nitrogen and thawed rapidly by placing at 37° C. in a water bath with gentle agitation for 1-2 minutes and then decontaminated by wiping with 70% ethanol before opening in a Class II biological safety cabinet. • 1.1.4 The vial contents were transferred dropwise into 10 mL of cell culture medium in a sterile 15 mL conical tube. • 1.1.5 The cells were centrifuged at 1,300 rpm for 5 minutes. • 1.1.6 The supernatant was aspirated and re-suspended the cells and transferred the cells into T225 flask containing cell culture medium.
(§2) • 1.2.1 Culture medium were renewed every 2-3 days. • 1.2.2 Keep the flask in a humidified 37° C., 5% CO2 incubator
(§3) Cells were harvested and diluted in culture medium to the designated concentration. Then the cells were cultured in T25 flasks, one T25 flask for one sample. 2.2 Formulation of test compounds • 2.2.1 L-Boronophenylalanine (L-BPA, 4-boron-L-phenylalanine, Purity: 95%, Chemical formula: C9H12BNO4, MW: 209.01, CAS: 76410-58-7) and fructose were dissolved in PBS at a molar ratio of 1:5, and then a 1.27 M ratio of 1 N NaOH is added. The mixture was stirred until L-BPA is completely dissolved, and the pH value was titrated to 7.2-7.4 with 1N HCl. • 2.2.2 For test compounds other than BPA, stock solutions were prepared of each compound in DMSO or fructose formulation at a concentration of 20 mM (such that final % DMSO in the cellular assay medium=0.5%)
(§4) • 2.3.1 The cells were seeded overnight (12-18 hours) to allow the cells to adhere well. • 2.3.2 The stock solution of each compound was added to each T25 flask such that the final concentration for each compound is 100 uM (0.1 mM). • 2.3.3 The flasks were placed in a 37° C., […] for 1 hour, 4 hour, and 24 hours, the cells were collected by using 0.25% Trypsin with 0.53 mM EDTA. 2.3.5 Centrifuged at 1,300 rpm for 5 min to collect cell pellets.

U87-MG (glioblastoma) = experiment: Cell uptake assay in U87-MG cells; type: cell-based, human; conditions: 0.1 mM
Description: as §1, §2
as §3, with “medium=0.5%) […]” for “medium=0.5%)”

[1] = tested on: NIH-3T3 (normal cell line); experiment: Cell uptake assay in NIH-3T3 cells; type: cell-based, mouse; conditions: 0.1 mM
Description: as §1, §2, §3, §4

B16F10 (melanoma) = experiment: Cell uptake assay in B16F10 cells; type: cell-based, mouse; conditions: 0.1 mM
Description: as §1, §2, §3, §4

[2] = tested on: SAS, B16F10, U87-MG relative to NIH-3T3; experiment: Cell uptake assays, cancer cell lines compared with normal cell line; type: cell-based, human
Description: as §1, §2
Cells were harvested and diluted in culture medium to the designated concentration. Then the cells were cultured in T25 flasks, one T25 flask for one sample. 2.2 Formulation of test compounds • 2.2.1 L-Boronophenylalanine (L-BPA, 4-boron-L-phenylalanine, Purity: 95%, Chemical formula: C9H12BNO4, MW: 209.01, CAS: 76410-58-7) and fructose were dissolved in PBS at a molar ratio of 1:5, and then a 1.27 M ratio of 1 N NaOH is added. […]

| SMILES | Cell uptake, Mean (ng/10^6 cell), SAS (SAS (head & neck cancer); 1 h) | Cell uptake, Mean (ng/10^6 cell), SAS (SAS (head & neck cancer); 4 h) | Cell uptake, Mean (ng/10^6 cell), SAS (SAS (head & neck cancer); 24 h) | Cell uptake, Mean (ng/10^6 cell), U87-MG (U87-MG (glioblastoma); 1 h) | Cell uptake, Mean (ng/10^6 cell), U87-MG (U87-MG (glioblastoma); 4 h) [ng/10^6 cell] | Cell uptake, Mean (ng/10^6 cell), U87-MG (U87-MG (glioblastoma); 24 h) [ng/10^6 cell] | Cell uptake, Mean (ng/10^6 cell), NIH-3T3 ([1]; 1 h) [ng/10^6 cell] | Cell uptake, Mean (ng/10^6 cell), NIH-3T3 ([1]; 4 h) [ng/10^6 cell] | Cell uptake, Mean (ng/10^6 cell), NIH-3T3 ([1]; 24 h) [ng/10^6 cell] | Cell uptake, Mean (ng/10^6 cell), B16F10 (B16F10 (melanoma); 1 h) [ng/10^6 cell] | Cell uptake, Mean (ng/10^6 cell), B16F10 (B16F10 (melanoma); 4 h) | Cell uptake, Mean (ng/10^6 cell), B16F10 (B16F10 (melanoma); 24 h) [ng/10^6 cell] | Cell uptake, Mean (ng/10^6 cell), SAS (SAS (head & neck cancer); 2 h) [ng/10^6 cell] | Cell uptake, Mean (ng/10^6 cell), U87-MG (U87-MG (glioblastoma); 2 h) [ng/10^6 cell] | Cell uptake, Mean (ng/10^6 cell), NIH-3T3 ([1]; 2 h) [ng/10^6 cell] | Cell uptake, Mean (ng/10^6 cell), B16F10 (B16F10 (melanoma); 2 h) [ng/10^6 cell] | Selective uptake by cancer cell lines relative to normal cell line ([2]; SAS, B16F10, U87-MG relative to NIH-3T3) | Uptake in cancer cells relative to Comparator Compounds A and B ([2]; cancer cells) |
| --- | --- | --- | --- | --- | --- | --- | --- | --- | --- | --- | --- | --- | --- | --- | --- | --- | --- | --- |
| N[C@@H](Cc1cccc(B(O)O)c1O)C(=O)O [Comparator Compound B, reference compound] | 510 ng/10^6 cell | 487 ng/10^6 cell | 1465 ng/10^6 cell | 380 ng/10^6 cell | 519 | 250 | 186 | 122 | 217 | 131 | 248 ng/10^6 cell | 662 |  |  |  |  |  |  |
| N[C@@H](Cc1ccc(B(O)O)cc1)C(=O)O [L-BPA, 4-Borono-L-phenylalanine] | 425 ng/10^6 cell and 407 ng/10^6 cell and 260 ng/10^6 cell and 254 ng/10^6 cell and 218 ng/10^6 cell | 379 ng/10^6 cell and 352 ng/10^6 cell and 251 ng/10^6 cell and 219 ng/10^6 cell and 217 ng/10^6 cell | 423 ng/10^6 cell and 444 ng/10^6 cell and 501 ng/10^6 cell and 261 ng/10^6 cell and 345 ng/10^6 cell and 336 ng/10^6 cell | 391 ng/10^6 cell and 343 ng/10^6 cell and 233 ng/10^6 cell and 196 ng/10^6 cell and 297 ng/10^6 cell |  |  |  |  |  |  | 247 ng/10^6 cell and 224 ng/10^6 cell and 188 ng/10^6 cell and 191 ng/10^6 cell and 185 ng/10^6 cell |  | 394 | 223 | 177 | 986 |  |  |
| N[C@@H](Cc1c(F)ccc(B(O)O)c1O)C(=O)O [Compound 3, (2S)-2-amino-3-[3-(dihydroxyboranyl)-6-fluoro-2-hydroxyphenyl]propanoic acid] | 1320 ng/10^6 cell | 1295 ng/10^6 cell | 1580 ng/10^6 cell | 307 ng/10^6 cell | 621 | 555 | 105 | 196 | 182 | 66.5 | 255 ng/10^6 cell | 196 |  |  |  |  |  |  |
| N[C@@H](Cc1cc(F)cc(B(O)O)c1O)C(=O)O [Compound 8, (2S)-2-amino-3-13-(dihydroxyboranyl)-5-fluoro-2-hydroxyphenyllpropanoic acid] | 561 ng/10^6 cell | 693 ng/10^6 cell | 1605 ng/10^6 cell | 173 ng/10^6 cell | 505 | 545 | 51.7 | 119 | 101 | 115 | 185 ng/10^6 cell | 615 |  |  |  |  |  |  |
| N[C@@H](Cc1cc(Cl)cc(B(O)O)c1O)C(=O)O [Compound 6, (2S)-2-amino-3-[5-chloro-3-(dihydroxyboranyl)-2-hydroxyphenyl]propanoic acid] | 373 ng/10^6 cell | 796 ng/10^6 cell | 1735 ng/10^6 cell | 58.6 ng/10^6 cell | 171 | 244 | 20.3 | 59.8 | 50.8 | 39.6 | 75.9 ng/10^6 cell | 222 |  |  |  |  |  |  |
| N[C@@H](Cc1ccc(F)c(B(O)O)c1O)C(=O)O [Compound 4, (2S)-2-amino-3-[3-(dihydroxyboranyl)-4-fluoro-2-hydroxyphenyl]propanoic acid] | 33.1 ng/10^6 cell | 191 ng/10^6 cell | 886 ng/10^6 cell | 14.3 ng/10^6 cell | 40 | 117 | 28.3 | 36.9 | 55.3 | 29.5 | 39.1 ng/10^6 cell | 48.1 |  |  |  |  |  |  |
| N[C@@H](Cc1cccc(B(O)O)c1O)C(=O)O [Compound 1, (S)-2-amino-3-(3-borono-2-hydroxyphenyl)propanoic acid] | 863 ng/10^6 cell | 1400 ng/10^6 cell | 2625 ng/10^6 cell | 175 ng/10^6 cell | 713 | 1315 | 109 | 194 | 122 | 158 | 282 ng/10^6 cell | 669 |  |  |  |  | selective partitioning into cancer cells relative to normal cells | increased uptake in cancer cells relative to Comparator Compounds A and B |
